In article PMC6368365, “Didehydro-Cortistatin A Inhibits HIV-1 by Specifically Binding to the Unstructured Basic Region of Tat” (mBio, 2019):

How the values were obtained:
[1] = biological target: T1, Hexim-1 (Homo sapiens, UniProt O94992); experiment: Confocal immunofluorescence of Hexim-1 subcellular localization; format: cell-based; conditions: HeLa-CD4-LTR-Luc cells
T1 construct: endogenous in cells; host or cells: HeLa-CD4-LTR-LacZ (RNA immunoprecipitation); HeLa-CD4-LTR-Luc (immunofluorescence)
Source text: (A) Sequence of the basic domains of HIV Tat HXB3, HIV Rev Bru and intracellular Hexim-1. […] Shown is confocal microscopy analysis of the subcellular localization of transfected FLAG-Tat or FLAG-Rev in the presence of DMSO or dCA in HeLa-CD4-LTR-Luc cells. Proteins were recognized with anti-FLAG and Alexa Fluor 568-tagged anti-IgG. Magnification 60×. Data are representative of n = 2 independent experiments. (C) Quantification of the nucleolar fluorescence of panel B using ImageJ. Data are the mean ± SEM from 3 to 4 different cells. […] HeLa-CD4-LTR-LacZ cells were infected with strain NL4-3 for 24 hours. The next day, compounds (dCA, 10 nM; KPT, 400 nM; and SCM, 10 nM) were added for 24 hours. Total, nuclear, and cytoplasmic mRNAs were extracted, and viral messages were determined by qRT-PCR. GAPDH was used for normalization. Data are the mean ± SD from n = 5 independent experiments. […] (G) Quantification of nuclear fluorescence of panel F using ImageJ. […] Statistical significance was determined using one-way ANOVA with post hoc Tukey’s test. ns, not significant; ***, P < 0.0001; **, P < 0.001.
Hexim-1 directly binds to cyclin T1 and is responsible for the inactivation of the kinase activity of P-TEFb ([35], [36]). […] Intracellular Hexim-1 was immunoprecipitated, and 7SK snRNP bound to Hexim-1 was extracted, reverse transcribed, and quantified by qRT-PCR as previously described ([42]) (Fig. 3E). […]

[2] = tested on: HIV-1 TAR; experiment: ITC of dCA binding to TAR; conditions: 25°C
Source text: FIG 6 dCA binding to Tat disrupts Tat-TAR interaction. (A) EMSA of full-length Tat with TAR in the presence of dCA. Raltegravir (Ralt.) and deleted bulge TAR (ΔTAR) were used as negative controls. Data are representative of n = 3 independent experiments. (B) EMSA of Tat’s basic domain with TAR in the presence of increasing concentrations of dCA to Tat’s basic peptide. Pep B is a peptide encompassing the basic domain of HIV Tat (^45ISYGRKKRRQRRRAP^59). Pep C (^69LSKQPASQPRGDPTG^83) and unlabeled or cold TAR (TARc) were used as negative controls. Neomycin, which binds to Tat and TAR, was used as a positive control. Ratios of compounds (or TARc) concentrations to peptide are shown. Data are representative of n = 3 independent experiments. […] Shown are ITC results from binding of dCA (left) or Tat peptide (right) to TAR at 25°C. […] Luciferase activity was determined relative to protein concentration (Bradford assay) (Fig. S9A). […] Statistical significance was determined using one-way ANOVA with post hoc Tukey’s test with 3 technical replicates. ns, not significant; ***, P < 0.0001. […]
Isothermal titration calorimetry. […] Each injection generated a heat burst curve (microcalories/second vs. seconds) and the area under each curve was determined by integration [using the origin version 7.0 software (Microcal, Inc.; Northampton, MA)] to obtain the measure of the heat associated with that injection.

T1 sequence (O94992 whole entry): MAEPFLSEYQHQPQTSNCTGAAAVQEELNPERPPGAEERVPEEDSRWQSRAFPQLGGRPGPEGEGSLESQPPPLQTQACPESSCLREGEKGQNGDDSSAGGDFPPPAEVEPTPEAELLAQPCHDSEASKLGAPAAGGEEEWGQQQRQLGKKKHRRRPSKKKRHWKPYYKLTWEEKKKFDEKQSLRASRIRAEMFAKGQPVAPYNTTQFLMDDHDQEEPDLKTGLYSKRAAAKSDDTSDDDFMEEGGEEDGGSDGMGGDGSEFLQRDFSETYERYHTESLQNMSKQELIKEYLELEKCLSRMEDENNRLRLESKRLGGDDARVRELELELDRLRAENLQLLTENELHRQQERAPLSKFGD

Q: How did the Hexim-1 nuclear localization [1] turn out when `CN(C)C1CC23CCC4(O2)C(=CCC2(C)C(c5ccc6ccncc6c5)=CCC24)C=C3C(O)C1O` (centres unmarked) [dCA, didehydro-cortistatin A] was run?
A: did not have any effect

Q: What about the “binding to TAR (ITC)” value [2] of the same compound?
A: does not bind to TAR
